# Reference: ChEMBL document CHEMBL1123196, “p-Dimethoxy-substituted trans-octahydrobenzo[f]- and -[g]quinolines: synthesis and assessment of dopaminergic agonist effects” (1986)
# The source made the active and inactive calls. No cut-off for these calls is given here.
# Experiments:
# Felis catus [1] = organism: Felis catus; assay: Inhibitory dose was evaluated for the inhibition of the chronotropic response to nerve stimulation using the cat cardioaccelerator nerve preparation; type: functional; conditions: read-out: ID50 (the source's name)
# [2] = target: D(2) dopamine receptor (Homo sapiens) (UniProt P14416); assay: Agonistic activity at a dose of 12.3 umol/kg was evaluated in rats with unilateral lesion of the nigrostriatal pathway (post junctional dopamine receptors); Inactive; type: functional; conditions: Rattus norvegicus, target entry is the homologue from another species
# [3] = target: T1, Dopamine receptor (Rattus norvegicus) (UniProt P25115+P19020+P30729+P18901+P61169); assay: Antagonistic activity at a dose of 12.3 umol/kg was evaluated in rats with unilateral lesion of the nigrostriatal pathway (post junctional dopamine receptors); Inactive; type: functional
# [4] = target: D(2) dopamine receptor (Homo sapiens) (UniProt P14416); assay: Agonistic activity at a dose of 3.08 umol/kg was evaluated against Dopamine receptor D2 in the […] cardioaccelerator nerve preparation; Inactive; type: functional; conditions: Felis catus
# [5] = target: D(2) dopamine receptor (Homo sapiens) (UniProt P14416); assay: Antagonistic activity at a dose of 3.08 umol/kg was evaluated against Dopamine receptor D2 in the […] cardioaccelerator nerve preparation; Inactive; type: functional
# [6] = target: D(2) dopamine receptor (Homo sapiens) (UniProt P14416); assay: Potency was evaluated for the activity against Dopamine receptor D2 of cat cardioaccelerator nerve preparation; Active; conditions: Felis catus; target entry is the homologue from another species
# Felis catus [7] = organism: Felis catus; assay: Inhibitory dose was evaluated on the cat cardioaccelerator nerve preparation; type: functional; conditions: read-out: ID50 (the source's name)
# Felis catus [8] = organism: Felis catus; assay: Inhibitory dose was evaluated against cat cardioaccelerator nerve preparation; type: functional; conditions: read-out: ID50 (the source's name)
# [9] = target: T1, Dopamine receptor (Rattus norvegicus); assay: Antagonistic activity at a dose of 13.3 umol/kg was evaluated in rats with unilateral lesion of the nigrostriatal pathway (post junctional dopamine receptors); Inactive; type: functional
# [10] = target: D(2) dopamine receptor (Homo sapiens) (UniProt P14416); assay: Agonistic activity at a dose of 13.3 umol/kg was evaluated in rats with unilateral lesion of the nigrostriatal pathway (post junctional dopamine receptors); Inactive; type: functional; conditions: Rattus norvegicus, target entry is the homologue from another species
# [11] = target: D(2) dopamine receptor (Homo sapiens) (UniProt P14416); assay: Antagonistic activity at a dose of 3.4 umol/kg was evaluated against Dopamine receptor D2 in the […] cardioaccelerator nerve preparation; Inactive; type: functional; conditions: Felis catus
# [12] = target: D(2) dopamine receptor (Homo sapiens) (UniProt P14416); assay: Agonistic activity at a dose of 3.4 umol/kg was evaluated against Dopamine receptor D2 in the […] cardioaccelerator nerve preparation; Inactive; type: functional; conditions: Felis catus
# Felis catus [13] = assay: Compound at a dose of 50 ug/kg was evaluated for the reversal of the inhibition of nerve stimulation using the cat cardioaccelerator nerve preparation; Reversed inhibition; type: functional, organism-based
# Felis catus [14] = assay: Compound at a dose of 100 ug/kg was evaluated for the reversal of the inhibition of nerve stimulation using the cat cardioaccelerator nerve preparation; Reversed inhibition; type: functional, organism-based
# Sequence of D(2) dopamine receptor (Homo sapiens) (P14416 whole entry): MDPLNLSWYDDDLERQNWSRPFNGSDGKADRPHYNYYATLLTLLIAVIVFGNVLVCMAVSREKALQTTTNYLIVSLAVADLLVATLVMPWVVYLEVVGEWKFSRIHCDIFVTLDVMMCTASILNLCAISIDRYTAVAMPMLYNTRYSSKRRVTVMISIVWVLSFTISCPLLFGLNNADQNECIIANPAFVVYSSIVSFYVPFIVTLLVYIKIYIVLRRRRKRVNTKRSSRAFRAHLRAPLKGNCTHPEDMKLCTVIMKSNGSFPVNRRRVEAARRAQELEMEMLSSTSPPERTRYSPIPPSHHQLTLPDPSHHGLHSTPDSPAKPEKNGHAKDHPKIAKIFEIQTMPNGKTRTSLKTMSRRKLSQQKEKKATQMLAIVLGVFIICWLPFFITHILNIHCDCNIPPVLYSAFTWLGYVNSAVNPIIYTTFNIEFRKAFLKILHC
compound,measurement,setting,value
CCCN1CCC[C@H]2c3c(OC)ccc(OC)c3CC[C@@H]21,ED50,Felis catus [1],1.17 µmol/kg
CCCN1CCC[C@@H]2c3c(OC)ccc(OC)c3CC[C@@H]21,Activity,[2],inactive
same,Activity,[3],inactive
same,Activity,[4],inactive
same,Activity,[5],inactive
CCCN(CCC)C1CCc2c(O)cccc2C1 (stereo not given),Activity,[6],Active
CN1CCc2cccc3c2[C@H]1Cc1ccc(O)c(O)c1-3 [APOMORPHINE],ED50,Felis catus [7],0.022 µmol/kg
CCCN1CCC[C@@H]2Cc3c(OC)ccc(OC)c3C[C@H]21,ED50,Felis catus [8],0.032 µmol/kg
CCCN(CCC)C1Cc2cccc(O)c2C1 (stereo not given),Activity,[6],Active
CCCN(CCC)CCc1cc(OC)ccc1OC,Activity,[9],inactive
same,Activity,[10],inactive
same,Activity,[11],inactive
same,Activity,[12],inactive
O=C(CCCN1CCC(O)(c2ccc(Cl)cc2)CC1)c1ccc(F)cc1,Activity,Felis catus [13],Active
same,Activity,Felis catus [14],Active
